Test results from US4208410A, “Dibenzo[d,g][1,3,6]dioxazocine derivatives” (priority 1977, dated 1980).
Where a name gives a salt, the structure may show the parent alone. Read-outs that look alike come from different tables or passages of the source.

Columns and labels:
[1] = Acute toxicity in white mice, peroral; conditions: mouse, in vivo, po, white mice CFLP
Protocol: Acute toxicity of the compounds was tested on white mice from the strain CFLP. Administration was effected perorally.

mice [2] = assay: Local anaesthetic activity (Acta Chirurg. Scand. 116, 351 (1958)); format: in vivo; conditions: for EC50 (concentration at which the local anaesthetic activity amounted to 50%): 0.25% and 0.5% solutions tested; for LD50/EC50: local anaesthetic activity
Protocol: In order to observe the local anaesthetic activity of the instant compounds 0.25% and 0.5% solution thereof were tested following the method described in Acta Chirurg. Scand. 116, 351 (1958). The test animals were mice.

mice [3] = assay: Duration of the local anaesthetic effect; format: in vivo
[4] = system: tremor induced by tremorine; assay: Inhibition of tremor induced by tremorine (Science, 124, 79/1956/); format: in vivo, white mice; conditions: for ED50: Mus musculus, read-out: ED50, inhibition of tremor by tremorine
Protocol: (§1) This activity was tested on white mice, on the basis of the inhibition of tremor induced by tremorine [1,1'-(2-butynylene)-dipyrrolidine] and of nicotine lethality. For comparison Trihexyphenidyl [α-cyclohexyl-α-phenyl-1-piperidinepropanol hydrochloride] and L-DOPA [L-(-)-β-(3,4-dihydroxyphenyl)alanine] are used.

nicotine lethality = assay: animal or person; format: in vivo, white mice; conditions: po; for LD50/ED50, inhibition of nicotine lethality: mouse, in vivo; for ED50: Mus musculus, read-out: ED50, inhibition of nicotine lethality
Protocol: as §1

| SMILES | LD50 [1] [mg/kg] | EC50 (concentration at which the local anaesthetic activity amounted to 50%) (mice [2]) [%] | LD50/EC50 (mice [2]) | Duration of the effect (mice [3]; 0.25% solution) [min] | Duration of the effect (mice [3]; 0.5% solution) [min] | ED50 ([4]; po, white mice) [mg/kg] | LD50/ED50, inhibition of tremor by tremorine ([4]; mouse, in vivo, po) | LD50/ED50, inhibition of nicotine lethality (nicotine lethality) | ED50 (nicotine lethality) [mg/kg] | ED50 ([4]; po) [mg/kg] | LD50/ED50, inhibition of tremor by tremorine ([4]; p.o., white mice) |
| --- | --- | --- | --- | --- | --- | --- | --- | --- | --- | --- | --- |
| CC(CN(C)C)CN1c2ccccc2OCOc2ccc(Cl)cc21 (stereo not shown) [Example 6, 2-Chloro-12H-12-(2-methyl-3-dimethylaminopropyl)dibenzo[d,g][1,3,6]dioxazocine hydrochloride] | 270 | 0.12 | 2250 | 67 | 161 | 11 | 25 | 25 | – | – | – |
| Clc1ccc2c(c1)N(CCN1CCCCC1)c1ccccc1OCO2 [Example 5, 2-Chloro-12H-12-(2-piperidinoethyl)-dibenzo[d,g][1,3,6]dioxazocine hydrochloride] | 700 | 0.32 | 2180 | 34 | 65 | 18 | 38.9 | 12 | 60 | – | – |
| CN(C)CCCN1c2ccccc2OCOc2ccc(Cl)cc21 [Example 3, 2-Chloro-12H-12-(3-dimethylaminopropyl)-dibenzo[d,g][1,3,6]dioxazocine maleinate] | 760 | 0.15 | 5060 | 71 | 103 | 8 | 95 | 54 | 14 | – | – |
| Clc1ccc2c(c1)Nc1ccccc1OCO2 [Example 1, 2-Chloro-12H-dibenzo[d,g][1,3,6]dioxazocine] | > 2000 | – | – | – | – | – | – | – | – | – | – |
| Cl.OC(CCN1CCCCC1)(c1ccccc1)C1CCCCC1 (stereo not drawn) [Trihexyphenidyl, α-cyclohexyl-α-phenyl-1-piperidinepropanol hydrochloride, reference compound] | – | – | – | – | – | – | – | – | 80 | 15 | 24 |
| N[C@@H](Cc1ccc(O)c(O)c1)C(=O)O [L-DOPA, L-(-)-β-(3,4-dihydroxyphenyl)alanine, reference compound] | – | – | – | – | – | > 500 | < 5 | < 10 | 500 | – | – |
| CN1CCN(CCN2c3ccccc3OCOc3ccc(Cl)cc32)CC1 [Example 7, 2-Chloro-12H-12-[2-(N-methylpiperazino)-ethyl]dibenzo[d,g][1,3,6]dioxazocine dihydrochloride] | 600 | 0.13 | 4600 | 53 | 260 | 30 | 20 | – | – | – | – |
| CCN(CC)CC(=O)Nc1c(C)cccc1C [Lidocaine, 2-diethylamino-2',6'-acetoxy-xylidide, reference compound] | – | 0.18 | – | 25 | 37 | – | – | – | – | – | – |
| CN(C)CCCN1c2cc(Cl)ccc2OCOc2ccc(Cl)cc21 [Example 15, 2,10-Dichloro-12H-12-(3-dimethylaminopropyl)-dibenzo[d,g][1,3,6]dioxazocinemaleinate] | 320 | – | – | – | – | 4.3 | 74.4 | 35.6 | 9 | – | – |
| Clc1ccc2c(c1)N(CCN1CCOCC1)c1ccccc1OCO2 [Example 8, 2-Chloro-12H-12-(2-morpholinoethyl)-dibenzo[d,g][1,3,6]dioxazocine maleinate] | > 2000 | – | – | – | – | – | – | 14 | 140 | – | – |
